Several values for one entry are separate records, joined by “and”; a condition that tells them apart may be missing. Equal entries are not always repeated.
Settings: 283.15 K, Liquid, Vibrating tube method

FC(C(F)(F)F)C(F)(F)F [1,1,1,2,3,3,3-heptafluoropropane]
Settings | mass density
25072 kPa | 1552.4 kg/m3
25508 kPa | 1553.7 kg/m3
25593 kPa | 1553.9 kg/m3
25630 kPa | 1554.1 kg/m3
25722 kPa | 1554.3 kg/m3
25865 kPa | 1554.8 kg/m3
25945 kPa | 1555.1 kg/m3
25993 kPa | 1555.1 kg/m3
26030 kPa | 1555.3 kg/m3
26068 kPa | 1555.4 kg/m3
26113 kPa | 1555.4 kg/m3
26152 kPa | 1555.7 kg/m3
26191 kPa | 1555.8 kg/m3
26249 kPa | 1555.9 kg/m3
26283 kPa | 1556 kg/m3
26327 kPa | 1556.3 kg/m3
26367 kPa | 1556.3 kg/m3
26406 kPa | 1556.2 kg/m3
26446 kPa | 1556.3 kg/m3
26479 kPa | 1556.8 kg/m3
26519 kPa | 1556.7 kg/m3
26559 kPa | 1556.8 kg/m3
26599 kPa | 1557 kg/m3
26650 kPa | 1557.1 kg/m3
26683 kPa | 1557.3 kg/m3
26723 kPa | 1557.3 kg/m3
26757 kPa | 1557.3 kg/m3
26796 kPa | 1557.5 kg/m3
26886 kPa | 1557.8 kg/m3
26921 kPa | 1557.9 kg/m3
26968 kPa | 1558.1 kg/m3
27001 kPa | 1558.1 kg/m3
27029 kPa | 1558.2 kg/m3
27058 kPa | 1558.3 kg/m3
27082 kPa | 1558.3 kg/m3
27131 kPa | 1558.5 kg/m3
27170 kPa | 1558.7 kg/m3
27199 kPa | 1558.8 kg/m3
27228 kPa | 1558.8 kg/m3
27271 kPa | 1558.9 kg/m3
27533 kPa | 1559.8 kg/m3
27563 kPa | 1559.9 kg/m3
27596 kPa | 1559.8 kg/m3
27629 kPa | 1560 kg/m3
27673 kPa | 1560 kg/m3
27710 kPa | 1560.2 kg/m3
27743 kPa | 1560.2 kg/m3
27816 kPa | 1560.5 kg/m3
27850 kPa | 1560.7 kg/m3
27880 kPa | 1560.8 kg/m3
27914 kPa | 1560.8 kg/m3
27940 kPa | 1560.9 kg/m3
27979 kPa | 1561 kg/m3
28024 kPa | 1561.2 kg/m3
28058 kPa | 1561.1 kg/m3
28091 kPa | 1561.4 kg/m3
28124 kPa | 1561.5 kg/m3
28168 kPa | 1561.6 kg/m3
28466 kPa | 1562.5 kg/m3
28514 kPa | 1562.7 kg/m3
28558 kPa | 1562.7 kg/m3
28591 kPa | 1562.8 kg/m3
28620 kPa | 1562.8 kg/m3
28657 kPa | 1562.9 kg/m3
28690 kPa | 1563.1 kg/m3
28727 kPa | 1563.2 kg/m3
28761 kPa | 1563.3 kg/m3
28795 kPa | 1563.4 kg/m3
28837 kPa | 1563.6 kg/m3
28875 kPa | 1563.5 kg/m3
29088 kPa | 1564.2 kg/m3
29357 kPa | 1565 kg/m3
29424 kPa | 1565.2 kg/m3
29452 kPa | 1565.2 kg/m3
29578 kPa | 1565.7 kg/m3
29617 kPa | 1565.6 kg/m3
29646 kPa | 1565.8 kg/m3
29684 kPa | 1565.9 kg/m3
29712 kPa | 1565.9 kg/m3
29745 kPa | 1566.1 kg/m3
29784 kPa | 1566.2 kg/m3
29814 kPa | 1566.3 kg/m3
29853 kPa | 1566.4 kg/m3
29877 kPa | 1566.5 kg/m3
29911 kPa | 1566.5 kg/m3
29944 kPa | 1566.6 kg/m3
29974 kPa | 1566.7 kg/m3
30021 kPa | 1566.8 kg/m3
30050 kPa | 1567 kg/m3
30079 kPa | 1567 kg/m3
30151 kPa | 1567.2 kg/m3
30190 kPa | 1567.4 kg/m3
30219 kPa | 1567.5 kg/m3
30259 kPa | 1567.4 kg/m3
30288 kPa | 1567.5 kg/m3
30323 kPa | 1567.7 kg/m3
30361 kPa | 1567.8 kg/m3
30390 kPa | 1567.7 kg/m3
30425 kPa | 1567.9 kg/m3
30460 kPa | 1567.9 kg/m3
30499 kPa | 1568.2 kg/m3
30529 kPa | 1568.3 kg/m3
30560 kPa | 1568.3 kg/m3
30595 kPa | 1568.5 kg/m3
30635 kPa | 1568.6 kg/m3
30666 kPa | 1568.6 kg/m3
30696 kPa | 1568.7 kg/m3
30743 kPa | 1568.9 kg/m3
30783 kPa | 1569 kg/m3
30830 kPa | 1569.1 kg/m3
30861 kPa | 1569.2 kg/m3
30897 kPa | 1569.2 kg/m3
30937 kPa | 1569.4 kg/m3
30968 kPa | 1569.5 kg/m3
30999 kPa | 1569.5 kg/m3
31030 kPa | 1569.6 kg/m3
31065 kPa | 1569.7 kg/m3
31105 kPa | 1569.9 kg/m3
31140 kPa | 1569.9 kg/m3
31187 kPa | 1570 kg/m3
31230 kPa | 1570.2 kg/m3
31267 kPa | 1570.2 kg/m3
31308 kPa | 1570.4 kg/m3
31350 kPa | 1570.6 kg/m3
31392 kPa | 1570.6 kg/m3
31429 kPa | 1570.7 kg/m3
31511 kPa | 1570.9 kg/m3
31547 kPa | 1571.1 kg/m3
31588 kPa | 1571.2 kg/m3
31620 kPa | 1571.3 kg/m3
31657 kPa | 1571.3 kg/m3
31697 kPa | 1571.5 kg/m3
31750 kPa | 1571.7 kg/m3
31782 kPa | 1571.7 kg/m3
31819 kPa | 1571.7 kg/m3
31855 kPa | 1571.9 kg/m3
31897 kPa | 1572 kg/m3
32027 kPa | 1572.4 kg/m3
32095 kPa | 1572.5 kg/m3
32132 kPa | 1572.7 kg/m3
32164 kPa | 1572.9 kg/m3
32391 kPa | 1573.4 kg/m3
32884 kPa | 1574.5 kg/m3
32921 kPa | 1574.8 kg/m3
32959 kPa | 1574.9 kg/m3
33280 kPa | 1575.7 kg/m3
33348 kPa | 1575.9 kg/m3
33384 kPa | 1576 kg/m3
33426 kPa | 1576 kg/m3
33457 kPa | 1576.2 kg/m3
33499 kPa | 1576.3 kg/m3
33535 kPa | 1576.4 kg/m3
33572 kPa | 1576.5 kg/m3
33609 kPa | 1576.6 kg/m3
33661 kPa | 1576.7 kg/m3
33688 kPa | 1576.8 kg/m3
33731 kPa | 1576.9 kg/m3
33762 kPa | 1576.9 kg/m3
33793 kPa | 1577.1 kg/m3
33830 kPa | 1577.3 kg/m3
33873 kPa | 1577.3 kg/m3
33910 kPa | 1577.4 kg/m3
33948 kPa | 1577.5 kg/m3
33984 kPa | 1577.6 kg/m3
34026 kPa | 1577.7 kg/m3
34068 kPa | 1577.8 kg/m3
34110 kPa | 1577.9 kg/m3
34148 kPa | 1577.9 kg/m3
34186 kPa | 1578.2 kg/m3
34224 kPa | 1578.1 kg/m3
34267 kPa | 1578.2 kg/m3
34310 kPa | 1578.5 kg/m3
34350 kPa | 1578.6 kg/m3
34387 kPa | 1578.6 kg/m3
34414 kPa | 1578.7 kg/m3
34442 kPa | 1578.8 kg/m3
34456 kPa | 1578.8 kg/m3
34470 kPa | 1578.8 kg/m3
34478 kPa | 1578.9 kg/m3
34486 kPa | 1578.9 kg/m3
34492 kPa | 1579.1 kg/m3
34498 kPa | 1579 kg/m3
34504 kPa | 1578.9 kg/m3
34505 kPa | 1578.9 kg/m3
34506 kPa | 1579 kg/m3
34508 kPa | 1579 kg/m3
34509 kPa | 1579 kg/m3
34511 kPa | 1579 kg/m3 and 1579.2 kg/m3
34512 kPa | 1579 kg/m3 and 1579.1 kg/m3
34513 kPa | 1579.1 kg/m3
34514 kPa | 1579.2 kg/m3
34515 kPa | 1579 kg/m3 and 1578.9 kg/m3
34516 kPa | 1579.1 kg/m3
34517 kPa | 1579 kg/m3
34518 kPa | 1579 kg/m3
34519 kPa | 1578.9 kg/m3 and 1579 kg/m3 and 1579.1 kg/m3
34520 kPa | 1578.9 kg/m3 and 1579.1 kg/m3
34521 kPa | 1579 kg/m3 and 1578.9 kg/m3
34522 kPa | 1579 kg/m3
34523 kPa | 1579.1 kg/m3 and 1579 kg/m3
34524 kPa | 1579.1 kg/m3 and 1579 kg/m3
34525 kPa | 1579 kg/m3 and 1578.9 kg/m3
34526 kPa | 1579.1 kg/m3
34527 kPa | 1579 kg/m3
34528 kPa | 1579.1 kg/m3

From the NIST ThermoML archive (doi:10.1021/je700260f)
